{
  "source": "paper PMC9271048",
  "about": "“Probing strigolactone perception mechanisms with rationally designed small-molecule agonists stimulating germination of root parasitic weeds” (Nature Communications, 2022)",
  "key": {"ShHTL7": {"target": "ShHTL7 (Striga hermonthica, UniProt A0A0M3PNA2)", "sequence (A0A0M3PNA2 entry or part of it)": "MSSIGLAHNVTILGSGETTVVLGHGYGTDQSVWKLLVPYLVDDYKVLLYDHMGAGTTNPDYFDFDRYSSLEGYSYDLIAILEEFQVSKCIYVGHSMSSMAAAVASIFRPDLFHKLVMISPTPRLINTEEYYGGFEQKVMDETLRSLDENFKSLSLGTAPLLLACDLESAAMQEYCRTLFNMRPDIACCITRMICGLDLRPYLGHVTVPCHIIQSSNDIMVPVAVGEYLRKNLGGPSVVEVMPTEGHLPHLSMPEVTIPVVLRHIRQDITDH", "test": "Competitive inhibition of ShHTL7 with Yoshimulactone Green (YLG) as substrate", "format": "biochemical", "outline": "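YLG hydrolysis by ShHTL7 followed by fluorescence (ex 480/em 520 nm) every 1 min for 30 min; compounds and YLG from fresh DMSO stocks. After subtracting no-enzyme background, the linear 8-min increase was used; IC50 fitted from relative inhibition versus compound concentration.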"}, "P. aegyptiaca seeds": {"system": "P. aegyptiaca seeds", "test": "P. aegyptiaca seed germination assay", "format": "in vivo, Phelipanche aegyptiaca", "details": "Phelipanche aegyptiaca", "outline": "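Germination scored at ×20 magnification after one week dark incubation at 25 °C with compound (acetone stock diluted 999/1 in water). Seeds were NaClO-sterilized and conditioned 4 days at 25 °C in the dark beforehand; 1‰ acetone negative, rac-GR24 positive control; triplicate biological repeats.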"}, "Striga hermonthica seeds": {"system": "Striga hermonthica seeds", "test": "S. hermonthica seed germination assay", "format": "in vivo", "details": "Striga hermonthica, 48 h; source data of Fig. 2d; average of 2 or 3", "experimental": "Two hundred mg of Striga hermonthica seeds were surface sterilized in 2% sodium hypochlorite containing 0.02% Tween-20 for 5 min, and then washed five times with sterile MilliQ water. The sterilized Striga seeds were spread on sterile glass fiber-filter papers (Whatman® GF/A, Sigma–Aldrich) in Petri dishes containing filter paper moistened with 3 mL sterile MilliQ water. The Petri dishes were incubated 6–8 days at 30 °C for preconditioning after which the seeds were dried in a laminar sterile air flow for 2 h. The germination bioassay was performed in 0.1% agarose and 0.1 ppm rac-GR24 was used as a positive control. Stocks of rac-GR24 and other compounds were prepared in acetone and diluted before use. Dried preconditioned seeds were added to the agarose containing the relevant compound, which was subsequently divided over three wells of a 12-well Cell Culture Treated Plates (Fisher Scientific, Landsmeer, the Netherlands). The plates were sealed and incubated in the dark at 30 °C for 2 days. The Striga germination rate in % (GR%) was calculated for each replicate using the formula: GR% = (Ngs/Nts) × 100, where Ngs is the number of germinated seeds per well and Nts is the total number of seeds per well. EC50 values of the compounds were calculated using http://www.ic50.tk/index.html."}, "[1]": {"system": "PaKAI2s (5 KAI2 protein homologs in P. aegyptiaca)", "test": "YLG-based competition assay on KAI2 protein homologs of P. aegyptiaca", "format": "biochemical, Phelipanche aegyptiaca", "details": "Supplementary Fig. 27", "excerpt": "In P. aegyptiaca, 5 KAI2s have been proposed as the SL receptors for the regulation of seed germination. […] The high sequence similarity may explain the consistency of these compounds in inducing germination in both S. hermonthica and P. aegyptiaca.\nThe excitation and emission wavelengths of YLG are 480 and 520 nm, respectively. We used a fluorescence spectrophotometer (CARY Eclipse) to detect the fluorescence intensity change of YLG during the enzymatic hydrolysis assay process. All the testing compounds and YLG were dissolved in DMSO and prepared as stock solutions just before use. […] The changes of fluorescence at 520 nm of each well were recorded every 1 min for 30 min. Using the reaction mixture without adding enzyme and tested compounds as the background control. After subtracting the background hydrolysis, a linear fluorescence increase in 8 min was used for further inspection. The IC50 values were determined via fitting relative inhibition percentages with the varying concentrations of compounds in Microsoft Excel.\nSupplementary Fig. 27. Binding of compounds 4a, (R)- and (S)-4a, and 4g-i to the HTL proteins in S. hermonthica and KAI2 protein homologs in P. aegyptiaca. In the competitive inhibitory activity assay, YLG (3 µM) was used as the fluorogenic substrate. Error bar indicates SD (n = 3 biologically independent experiments).\n(1 picture or pasted object on this page, not shown here)"}, "[2]": {"details": "ShHTL7, YLG competition, Supplementary Fig. 27, read-out: IC50, replicate 1"}, "[3]": {"details": "ShHTL7, YLG competition, Supplementary Fig. 27, read-out: IC50, replicate 2"}, "[4]": {"details": "ShHTL7, YLG competition, Supplementary Fig. 27, read-out: IC50, replicate 3"}, "[5]": {"details": "YLG as substrate, text and Fig. 2, read-out: IC50, competitive ShHTL7 inhibition (YLG assay)"}, "[6]": {"details": "wild-type ShHTL7, average of 3, source data of Fig. 2a,b, Supplementary Figs. 8a, 9a, 20b, read-out: IC50, competitive ShHTL7 inhibition (YLG), source data average"}, "[7]": {"details": "source data of Fig. 2c and Supplementary Fig. 8b, average of 3, read-out: P. aegyptiaca germination EC50 values, source data average (converted)"}, "[8]": {"details": "KAI2C, YLG competition, read-out: IC50, replicate 1"}, "[9]": {"details": "KAI2C, YLG competition, read-out: IC50, replicate 2"}, "[10]": {"details": "KAI2C, YLG competition, read-out: IC50, replicate 3"}, "[11]": {"details": "KAI2C, average of 3 replicates, read-out: IC50, average"}, "[12]": {"details": "KAI2d1, YLG competition, read-out: IC50, replicate 1"}, "[13]": {"details": "KAI2d1, YLG competition, read-out: IC50, replicate 2"}, "[14]": {"details": "KAI2d1, YLG competition, read-out: IC50, replicate 3"}, "[15]": {"details": "KAI2d1, average of 3 replicates, read-out: IC50, average"}, "[16]": {"details": "KAI2d2, YLG competition, read-out: IC50, replicate 1"}, "[17]": {"details": "KAI2d2, YLG competition, read-out: IC50, replicate 2"}, "[18]": {"details": "KAI2d2, YLG competition, read-out: IC50, replicate 3"}, "[19]": {"details": "KAI2d2, average of 3 replicates, read-out: IC50, average"}, "[20]": {"details": "KAI2d3, YLG competition, read-out: IC50, replicate 1"}, "[21]": {"details": "KAI2d3, YLG competition, read-out: IC50, replicate 2"}, "[22]": {"details": "KAI2d3, YLG competition, read-out: IC50, replicate 3"}, "[23]": {"details": "KAI2d3, average of 3 replicates, read-out: IC50, average"}, "[24]": {"details": "KAI2d4, YLG competition, read-out: IC50, replicate 1"}, "[25]": {"details": "KAI2d4, YLG competition, read-out: IC50, replicate 2"}, "[26]": {"details": "KAI2d4, YLG competition, read-out: IC50, replicate 3"}, "[27]": {"details": "KAI2d4, average of 3 replicates, read-out: IC50, average"}},
  "note": "Read-outs that look alike come from different tables or passages of the source.",
  "data": [
    {"smiles": "CC1=C[C@@H](OC(=O)N2CCN(C(=O)COc3ccc(Br)cc3C)CC2)OC1=O", "note": "[(R)-4a]", "values": [
      {"measurement": "IC50", "setting": "ShHTL7; [2]", "value": 40.1, "unit": "µM"},
      {"measurement": "IC50", "setting": "ShHTL7; [3]", "value": 33.7, "unit": "µM"},
      {"measurement": "IC50", "setting": "ShHTL7; [4]", "value": 33.7, "unit": "µM"},
      {"measurement": "IC50", "setting": "ShHTL7; ShHTL7, average of 3 replicates, Supplementary Fig. 27, read-out: IC50, average", "value": 35.8, "unit": "µM"},
      {"measurement": "IC50", "setting": "ShHTL7; [5]", "value": "35.8 ± 3.69", "unit": "µM"},
      {"measurement": "IC50", "setting": "ShHTL7; [6]", "value": 35.8, "unit": "µM"},
      {"measurement": "EC50", "setting": "P. aegyptiaca seeds; [7]", "value": 1270, "unit": "nM"},
      {"measurement": "EC50", "setting": "Striga hermonthica seeds", "value": 1.1, "unit": "nM"},
      {"measurement": "IC50", "setting": "[1]; [8]", "value": 53.2, "unit": "µM"},
      {"measurement": "IC50", "setting": "[1]; [9]", "value": 56.3, "unit": "µM"},
      {"measurement": "IC50", "setting": "[1]; [10]", "value": 44.7, "unit": "µM"},
      {"measurement": "IC50", "setting": "[1]; [11]", "value": 51.4, "unit": "µM"},
      {"measurement": "IC50", "setting": "[1]; [12]", "value": "> 100", "unit": "µM"},
      {"measurement": "IC50", "setting": "[1]; [13]", "value": "> 100", "unit": "µM"},
      {"measurement": "IC50", "setting": "[1]; [14]", "value": "> 100", "unit": "µM"},
      {"measurement": "IC50", "setting": "[1]; [15]", "value": "> 100", "unit": "µM"},
      {"measurement": "IC50", "setting": "[1]; [16]", "value": "> 100", "unit": "µM"},
      {"measurement": "IC50", "setting": "[1]; [17]", "value": "> 100", "unit": "µM"},
      {"measurement": "IC50", "setting": "[1]; [18]", "value": "> 100", "unit": "µM"},
      {"measurement": "IC50", "setting": "[1]; [19]", "value": "> 100", "unit": "µM"},
      {"measurement": "IC50", "setting": "[1]; [20]", "value": 84.6, "unit": "µM"},
      {"measurement": "IC50", "setting": "[1]; [21]", "value": 78.5, "unit": "µM"},
      {"measurement": "IC50", "setting": "[1]; [22]", "value": 91.5, "unit": "µM"},
      {"measurement": "IC50", "setting": "[1]; [23]", "value": 84.9, "unit": "µM"},
      {"measurement": "IC50", "setting": "[1]; [24]", "value": "> 100", "unit": "µM"},
      {"measurement": "IC50", "setting": "[1]; [25]", "value": "> 100", "unit": "µM"},
      {"measurement": "IC50", "setting": "[1]; [26]", "value": "> 100", "unit": "µM"},
      {"measurement": "IC50", "setting": "[1]; [27]", "value": "> 100", "unit": "µM"}
    ]},
    {"smiles": "CC1=CC(OC(=O)N2CCN(C(=O)COc3ccc(Br)cc3C)CC2)OC1=O", "note": "(centres unmarked) [4a]", "values": [
      {"measurement": "IC50", "setting": "ShHTL7; [2]", "value": 0.953, "unit": "µM"},
      {"measurement": "IC50", "setting": "ShHTL7; [3]", "value": 1.35, "unit": "µM"},
      {"measurement": "IC50", "setting": "ShHTL7; [4]", "value": 1.32, "unit": "µM"},
      {"measurement": "IC50", "setting": "ShHTL7; [5]", "value": "1.21 ± 0.22", "unit": "µM"},
      {"measurement": "IC50", "setting": "ShHTL7; [6]", "value": 1.21, "unit": "µM"},
      {"measurement": "EC50", "setting": "P. aegyptiaca seeds; read-out: EC50, P. aegyptiaca seed germination", "value": "~0.0862", "unit": "nM"},
      {"measurement": "EC50", "setting": "P. aegyptiaca seeds; [7]", "value": 0.0628, "unit": "nM"},
      {"measurement": "EC50", "setting": "Striga hermonthica seeds", "value": 0.00107, "unit": "nM"},
      {"measurement": "IC50", "setting": "[1]; [8]", "value": 10.9, "unit": "µM"},
      {"measurement": "IC50", "setting": "[1]; [9]", "value": 13.8, "unit": "µM"},
      {"measurement": "IC50", "setting": "[1]; [10]", "value": 21.5, "unit": "µM"},
      {"measurement": "IC50", "setting": "[1]; [11]", "value": 15.4, "unit": "µM"},
      {"measurement": "IC50", "setting": "[1]; [12]", "value": 33.3, "unit": "µM"},
      {"measurement": "IC50", "setting": "[1]; [13]", "value": 33.3, "unit": "µM"},
      {"measurement": "IC50", "setting": "[1]; [14]", "value": 24.8, "unit": "µM"},
      {"measurement": "IC50", "setting": "[1]; [15]", "value": 30.5, "unit": "µM"},
      {"measurement": "IC50", "setting": "[1]; [16]", "value": 40.8, "unit": "µM"},
      {"measurement": "IC50", "setting": "[1]; [17]", "value": 46.6, "unit": "µM"},
      {"measurement": "IC50", "setting": "[1]; [18]", "value": 48.6, "unit": "µM"},
      {"measurement": "IC50", "setting": "[1]; [19]", "value": 45.3, "unit": "µM"},
      {"measurement": "IC50", "setting": "[1]; [20]", "value": 30.6, "unit": "µM"},
      {"measurement": "IC50", "setting": "[1]; [21]", "value": 26.4, "unit": "µM"},
      {"measurement": "IC50", "setting": "[1]; [22]", "value": 27.7, "unit": "µM"},
      {"measurement": "IC50", "setting": "[1]; [23]", "value": 28.2, "unit": "µM"},
      {"measurement": "IC50", "setting": "[1]; [24]", "value": 17.4, "unit": "µM"},
      {"measurement": "IC50", "setting": "[1]; [25]", "value": 17.7, "unit": "µM"},
      {"measurement": "IC50", "setting": "[1]; [26]", "value": 26.3, "unit": "µM"},
      {"measurement": "IC50", "setting": "[1]; [27]", "value": 20.5, "unit": "µM"}
    ]}
  ]
}
